# Measured values from publication PMC12263422, “Cryo-EM structure of the human THIK-1 K2P K^+ channel reveals a lower Y gate regulated by lipids and anesthetics” (Nature Structural & Molecular Biology, 2025).
# “And” between values parts separate entries of the source, which are not always exact repeats. Identical values can stand only once.
# Experiments:
# WT THIK-1 (without M1R) = molecular target: T1, WT THIK-1 (without M1R) (Homo sapiens, UniProt Q9HB14); assay: Whole-cell currents in HEK-293 cells with Oxo-M, WT THIK-1 without M1R; assay type: cell-based; settings: THIK-1 WT (no M1R)
# T1 construct: expressed in transfected cells; host or cells: HEK-293
# From the text: Supplement 41594_2025_1497_MOESM2_ESM.xlsx, sheet "ExtData_Fig_S2e" | column: Maximal currents with Oxo-M (%); WT
# [1] = test system: THIK-1-Y273A (coexpressed with hM1R); assay: Whole-cell currents in transiently transfected HEK-293 cells, GqPCR (hM1-R) mediated activation by Oxo-M, THIK-1-Y273A; assay type: cell-based, human; settings: for Maximal currents with Oxo-M: THIK-1 Y273A + M1R
# Protocol: Two-electrode voltage–clamp (TEVC) studies were performed in Xenopus oocytes. All animal use conformed to the Guide for the Care and Use of Laboratory Animals (NIH Publication 85–23), and all experiments using Xenopus toads were approved by the local ethics panels. Oocytes were stored at 17 °C in ND96 recording solution composed of (in mM): 96 NaCl, 2 KCl, 1.8 CaCl2, 1 MgCl2, 5 HEPES (pH 7.5 adjusted with NaOH and HCl), supplemented with Na-pyruvate (275 mg L^–1), theophylline (90 mg L^–1) and gentamicin (50 mg L^–1). Oocytes were injected with 1 ng mRNA for WT or mutant channels, and were incubated for 24–48 h at 17 °C. Two-electrode voltage clamp recordings were then performed as previously described[42],[43]. For macroscopic patch–clamp measurements, oocytes were obtained as described above incubated at 17 °C in a solution containing (mM): 54 NaCl, 30 KCl, 2.4 NaHCO3, 0.82 MgSO4 ×7 H2O, 0.41 CaCl2, 0.33 Ca(NO3)2 ×4 H2O and 7.5 TRIS (pH 7.4 adjusted with NaOH and HCl) for 1–4 days before use. Excised patch recordings in inside-out configuration conditions were performed at room temperature. Patch pipettes were made from thick-walled borosilicate glass GB 200TF-8P (Science Products), had resistances of 0.2–0.5 MΩ (tip diameter, 10–25 µm) and filled with a pipette solution (in mM): 120 KCl, 10 HEPES and 3.6 CaCl2 (pH 7.4 adjusted with KOH and HCl). Intracellular bath solutions and compounds were applied to the cytoplasmic side of excised patches for the various K^+ channels through a gravity flow multi-barrel pipette system. […] Currents were recorded with an EPC10 amplifier (HEKA Electronics) and sampled at 10 kHz or higher, with filtering set to 3 kHz (–3 dB) or higher, as appropriate for sampling rate. For measurements of GPCR activation, whole-cell currents were recorded for THIK-1 in transiently transfected HEK-293 cells. […] Single-channel currents were recorded with an Axopatch 200B amplifier through a Digidata 1440A digitizer (Molecular Devices). Data were filtered at 2 kHz and recorded at a 200-kHz sampling rate with the program Clampex (Molecular Devices). […]
# [2] = test system: WT THIK-1 (coexpressed with hM1R); assay: Whole-cell currents in transiently transfected HEK-293 cells, GqPCR (hM1-R) mediated activation by Oxo-M, WT THIK-1; assay type: cell-based, human; settings: for activation by Oxo-M: 10 μM Oxo-M; for Maximal currents with Oxo-M: THIK-1 WT + M1R
# Protocol: Two-electrode voltage–clamp (TEVC) studies were performed in Xenopus oocytes. All animal use conformed to the Guide for the Care and Use of Laboratory Animals (NIH Publication 85–23), and all experiments using Xenopus toads were approved by the local ethics panels. Oocytes were stored at 17 °C in ND96 recording solution composed of (in mM): 96 NaCl, 2 KCl, 1.8 CaCl2, 1 MgCl2, 5 HEPES (pH 7.5 adjusted with NaOH and HCl), supplemented with Na-pyruvate (275 mg L^–1), theophylline (90 mg L^–1) and gentamicin (50 mg L^–1). Oocytes were injected with 1 ng mRNA for WT or mutant channels, and were incubated for 24–48 h at 17 °C. Two-electrode voltage clamp recordings were then performed as previously described[42],[43]. For macroscopic patch–clamp measurements, oocytes were obtained as described above incubated at 17 °C in a solution containing (mM): 54 NaCl, 30 KCl, 2.4 NaHCO3, 0.82 MgSO4 ×7 H2O, 0.41 CaCl2, 0.33 Ca(NO3)2 ×4 H2O and 7.5 TRIS (pH 7.4 adjusted with NaOH and HCl) for 1–4 days before use. Excised patch recordings in inside-out configuration conditions were performed at room temperature. Patch pipettes were made from thick-walled borosilicate glass GB 200TF-8P (Science Products), had resistances of 0.2–0.5 MΩ (tip diameter, 10–25 µm) and filled with a pipette solution (in mM): 120 KCl, 10 HEPES and 3.6 CaCl2 (pH 7.4 adjusted with KOH and HCl). Intracellular bath solutions and compounds were applied to the cytoplasmic side of excised patches for the various K^+ channels through a gravity flow multi-barrel pipette system. The intracellular solution had the following composition (in mM): 120 KCl, 10 HEPES, 2 EGTA and 1 pyrophosphate (pH adjusted with KOH and HCl). Currents were recorded with an EPC10 amplifier (HEKA Electronics) and sampled at 10 kHz or higher, with filtering set to 3 kHz (–3 dB) or higher, as appropriate for sampling rate. For measurements of GPCR activation, whole-cell currents were recorded for THIK-1 in transiently transfected HEK-293 cells. Cells were stimulated by a ramp protocol between −100 and +60 mV (holding potential, −80 mV). The pipette solution was composed of (in mM): 140 KCl, 2 MgCl2, 1 CaCl2, 2.5 EGTA and 10 HEPES (pH 7.3 adjusted with KOH and HCl). The extracellular bath solution had the following composition (in mM): 135 NaCl, 5 KCl, 2 MgCl2, 2 CaCl2, 10 glucose and 10 HEPES pH (pH 7.3 adjusted with NaOH and HCl). Oxotremorine M (Oxo-M) was added to extracellular bath solution to obtain the final concentration. Single-channel currents were recorded with an Axopatch 200B amplifier through a Digidata 1440A digitizer (Molecular Devices). Data were filtered at 2 kHz and recorded at a 200-kHz sampling rate with the program Clampex (Molecular Devices). […]
# T1 sequence (Q9HB14 whole entry): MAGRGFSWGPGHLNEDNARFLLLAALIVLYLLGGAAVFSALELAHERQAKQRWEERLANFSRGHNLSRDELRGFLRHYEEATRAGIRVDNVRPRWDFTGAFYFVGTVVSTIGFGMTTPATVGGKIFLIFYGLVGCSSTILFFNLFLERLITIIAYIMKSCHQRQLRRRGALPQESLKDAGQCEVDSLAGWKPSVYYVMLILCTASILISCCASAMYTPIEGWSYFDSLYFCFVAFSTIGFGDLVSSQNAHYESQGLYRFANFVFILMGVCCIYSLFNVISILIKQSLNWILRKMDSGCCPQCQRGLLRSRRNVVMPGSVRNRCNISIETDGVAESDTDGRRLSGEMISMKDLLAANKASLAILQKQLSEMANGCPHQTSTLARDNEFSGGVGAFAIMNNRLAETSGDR
smiles,measurement,setting,value
"C[N+](C)(C)CC#CCN1CCCC1=O [Oxo-M, Oxotremorine M]",Maximal currents with Oxo-M,WT THIK-1 (without M1R); individual recordings,87.670% and 72.140% and 84.570% and 69.740% and 73.820% and 88.800% and 69.120% and 93.710% and 101.590% and 90.590% and 96.720% and 154.730% and 88.450%
same,Maximal currents with Oxo-M,WT THIK-1 (without M1R); mean,90.13%
same,activation by Oxo-M,"[1]; 10 μM Oxo-M, THIK-1-Y273A",no activation
same,Maximal currents with Oxo-M,[1]; individual recordings,93.100% and 97.920% and 94.800% and 93.870% and 99.320% and 100.290%
same,Maximal currents with Oxo-M,[1]; mean,96.55%
same,activation by Oxo-M,[2]; WT THIK-1 with hM1-R,~ 50%
same,activation by Oxo-M,[2]; in the absence of hM1-R,no activation
same,Maximal currents with Oxo-M,[2]; individual recordings,172.080% and 208.230% and 131.370% and 127.470% and 125.270% and 149.760% and 113.980% and 121.900% and 146.330% and 151.430% and 123.170% and 131.250% and 181.580% and 173.780% and 155.620% and 228.290% and 290.820% and 139.180% and 66.330% and 107.180% and 88.700%
same,Maximal currents with Oxo-M,[2]; mean,149.22%
